By IC50 is commonly meant the midpoint of a concentration-inhibition curve.

Chain of Recombinant human cathepsin A (P10619 29-326): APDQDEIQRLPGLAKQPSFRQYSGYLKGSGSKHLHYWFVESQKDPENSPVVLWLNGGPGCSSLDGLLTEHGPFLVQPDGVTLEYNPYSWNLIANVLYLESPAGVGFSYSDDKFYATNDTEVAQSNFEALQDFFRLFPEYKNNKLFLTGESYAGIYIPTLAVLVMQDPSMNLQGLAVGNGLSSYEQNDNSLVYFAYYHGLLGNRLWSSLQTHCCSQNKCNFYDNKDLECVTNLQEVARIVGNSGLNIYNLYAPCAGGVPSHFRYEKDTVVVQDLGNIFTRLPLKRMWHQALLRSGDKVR
Chain of Recombinant human cathepsin A (P10619 327-480): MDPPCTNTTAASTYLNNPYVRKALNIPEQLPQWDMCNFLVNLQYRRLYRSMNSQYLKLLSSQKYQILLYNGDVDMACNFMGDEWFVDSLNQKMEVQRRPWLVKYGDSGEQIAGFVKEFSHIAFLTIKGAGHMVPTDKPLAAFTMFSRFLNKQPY

The target in this experiment is Recombinant human cathepsin A (Homo sapiens (Human), UniProt P10619). The experiment in a line: Cathepsin A inhibitory activity (Bodipy FL-labeled bradykinin substrate, microfluidic capillary electrophoresis). The class given is biochemical. The settings on record: read-out: CATHA IC50. The method, then:
Pharmacological Tests a) Cathepsin a Inhibitory Activity
Recombinant human cathepsin A (residues 29-480, with a C-terminal 10-His tag; R&D Systems, #1049-SE) was proteolytically activated with recombinant human cathepsin L (R&D Systems, #952-CY). Briefly, cathepsin A was incubated at 10 μg/ml with cathepsin L at 1 μg/ml in activation buffer (25 mM 2-(morpholin-4-yl)-ethanesulfonic acid (MES), pH 6.0, containing 5 mM dithiothreitol (DTT)) for 15 min at 37° C.
The activated cathepsin A was diluted in assay buffer (25 mM MES, pH 5.5, containing 5 mM DTT) and mixed with the test compound (dissolved in assay buffer containing (v/v) 3% DMSO) or, in the control experiments, with the vehicle in a multiple assay plate. After incubation for 15 min at room temperature, as substrate then bradykinin carrying an N-terminal® Bodipy FL (4,4-difluoro-5,7-dimethyl-4-bora-3a,4a-diaza-s-indacene-3-propionyl) label (JPT Peptide Technologies GmbH; dissolved in assay buffer) was added to the mixture. The final concentration of cathepsin A was 833 ng/ml and the final concentration of labeled bradykinin 2 μM. After incubation for 15 min at room temperature the reaction was stopped by the addition of stop buffer (130 mM 2-(4-(2-hydroxy-ethyl)-piperazin-1-yl)-ethanesulfonic acid, pH 7.4, containing (v/v) 0.013%° Triton X-100, 0.13% Coating Reagent 3 (Caliper Life Sciences), 6.5% DMSO and 20 μM ebelactone B (Sigma, #E0886)).
Uncleaved substrate and product were then separated by a microfluidic capillary electrophoresis on a LabChip® 3000 Drug Discovery System (12-Sipper-Chip; Caliper Life Sciences) and quantified by determination of the respective peak areas. Substrate turnover was calculated by dividing product peak area by the sum of substrate and product peak areas, and the enzyme activity and the inhibitory effect of the test compound thus quantified.
On to `CC(C)(C)c1cccc(-c2cccc(C(CC(=O)O)c3nccs3)c2)c1` (stereo not shown) [compound 1], for which the IC50 turned out to be 1890 nM.

Take `Cc1nc(C(CC(=O)O)c2cccc(Br)c2)sc1C` (stereo not shown) [compound 2]: the half-maximal inhibitory concentration (IC50) is 7780 nM.

Take `Cc1cccc(-c2cccc(C(CC(=O)O)c3nccs3)c2)c1` (stereo not shown) [compound 3]: the half-inhibitory concentration (IC50) was 784 nM.

As to `Cc1cccc(-c2cccc(C(CC(=O)O)c3nccs3)c2)c1Cl` (stereo not shown) [compound 4], the IC50 amounted to 797 nM.

Take `O=C(O)CC(c1cccc(-c2cccc(Cl)c2)c1)c1nccs1` (stereo not shown) [compound 5]: the concentration for half-maximal inhibition (IC50) is 967 nM.

Take `Cc1c(Cl)cccc1-c1cccc(C(CC(=O)O)c2nccs2)c1` (stereo not shown) [compound 6]: the IC50 came to 1670 nM.

Regarding `O=C(O)CC(c1cccc(-c2ccc(Cl)cc2)c1)c1nccs1` (stereo not shown) [compound 7], the IC50 was determined as 1750 nM.

Turning to `O=C(O)CC(c1cccc(-c2ccccc2Cl)c1)c1nccs1` (stereo not shown) [compound 8], the half-inhibitory concentration (IC50) is 2040 nM.

For `Cc1cccc(-c2cccc(C(CC(=O)O)c3nccs3)c2)c1C` (stereo not shown) [compound 9], the half-maximal inhibitory concentration (IC50) stood at 2480 nM.

On to `O=C(O)CC(c1cccc(-c2ccccc2)c1)c1nccs1` (stereo not shown) [compound 10], for which the IC50 worked out at 2590 nM.

Take `O=C(O)CC(c1cccc(-c2cccc(F)c2Cl)c1)c1nccs1` (stereo not shown) [compound 11]: the 50% inhibitory concentration (IC50) is 2720 nM.

Turning to `Cc1ccccc1-c1cccc(C(CC(=O)O)c2nccs2)c1` (stereo not shown) [compound 12], the IC50 turned out to be 3540 nM.

As for `O=C(O)CC(c1cccc(-c2cc(C(F)(F)F)ccc2F)c1)c1nccs1` (stereo not shown) [compound 13], the half-maximal inhibitory concentration (IC50) was found to be 3620 nM.

With `O=C(O)CC(c1cccc(-c2ccc(F)cc2)c1)c1nccs1` (stereo not shown) [compound 14], the IC50 was 4300 nM.

`Cc1nnc(C(CC(=O)O)c2cccc(-c3cccc(Cl)c3Cl)c2)o1` (stereo not shown) [compound 15]: the IC50 was found to be 634 nM.

As to `Cc1nnc(C(CC(=O)O)c2cccc(-c3ccncc3)c2)o1` (stereo not shown) [compound 16], the IC50 was found to be 23200 nM.

Turning to `COc1cccc(-c2cccc(C(CC(=O)O)c3nccs3)c2)c1F` (stereo not shown) [compound 17], the IC50 worked out at 588 nM.

Turning to `Cn1nc(-c2cccc(C(CC(=O)O)c3nccs3)c2)c2ccccc21` (stereo not shown) [compound 18], the IC50 came to 769 nM.

For `O=C(O)CC(c1cccc(-c2ccc3c(c2)OCCO3)c1)c1nccs1` (stereo not shown) [compound 19], the concentration for half-maximal inhibition (IC50) was 987 nM.

With `CCCOc1ccc(F)c(-c2cccc(C(CC(=O)O)c3nccs3)c2)c1` (stereo not shown) [compound 20], the IC50 was determined as 1110 nM.

With `COc1cccc(-c2cccc(C(CC(=O)O)c3nccs3)c2)c1` (stereo not shown) [compound 21], the IC50 turned out to be 1180 nM.

Regarding `COc1cc(F)c(-c2cccc(C(CC(=O)O)c3nccs3)c2)cc1F` (stereo not shown) [compound 22], the IC50 worked out at 1320 nM.

As for `Nc1ccc(-c2cccc(C(CC(=O)O)c3nccs3)c2)c(F)n1` (stereo not shown) [compound 23], the IC50 was determined as 1390 nM.

Regarding `CCOc1cccc(-c2cccc(C(CC(=O)O)c3nccs3)c2)c1` (stereo not shown) [compound 24], the 50% inhibitory concentration (IC50) was 1500 nM.

With `COc1c(C)cc(-c2cccc(C(CC(=O)O)c3nccs3)c2)cc1C` (stereo not shown) [compound 25], the IC50 amounted to 1650 nM.

For `CCCOc1cccc(-c2cccc(C(CC(=O)O)c3nccs3)c2)c1` (stereo not shown) [compound 26], the IC50 was 1670 nM.

As to `N#CCOc1cccc(-c2cccc(C(CC(=O)O)c3nccs3)c2)c1` (stereo not shown) [compound 27], the IC50 was 1940 nM.

As for `O=C(O)CC(c1cccc(-c2cccc(OC(F)(F)F)c2)c1)c1nccs1` (stereo not shown) [compound 28], the IC50 came out at 2250 nM.

In the case of `COc1cc(-c2cccc(C(CC(=O)O)c3nccs3)c2)ccc1O` (stereo not shown) [compound 29], the IC50 was determined as 2280 nM.

On to `O=C(O)CC(c1cccc(-c2ccc(OCC3CC3)cc2)c1)c1nccs1` (stereo not shown) [compound 30], for which the IC50 came out at 2290 nM.

Take `CC(C)COc1cc(F)cc(-c2cccc(C(CC(=O)O)c3nccs3)c2)c1` (stereo not shown) [compound 31]: the concentration for half-maximal inhibition (IC50) stood at 2310 nM.

For `N#CCOc1ccc(-c2cccc(C(CC(=O)O)c3nccs3)c2)cc1` (stereo not shown) [compound 32], the half-inhibitory concentration (IC50) stood at 2420 nM.

In the case of `O=C(O)CC(c1cccc(-c2ccc(OCc3ccccc3)c(F)c2)c1)c1nccs1` (stereo not shown) [compound 33], the 50% inhibitory concentration (IC50) was found to be 2430 nM.

On to `O=C(O)CC(c1cccc(-c2cccc(OCC(F)(F)F)c2)c1)c1nccs1` (stereo not shown) [compound 34], for which the IC50 was found to be 2460 nM.

As for `O=C(O)CC(c1cccc(-c2cccc(OCc3ccccc3)c2)c1)c1nccs1` (stereo not shown) [compound 35], the half-maximal inhibitory concentration (IC50) came to 2770 nM.

Regarding `CC(C)COc1ccc(-c2cccc(C(CC(=O)O)c3nccs3)c2)cc1` (stereo not shown) [compound 36], the IC50 was found to be 2810 nM.

As to `COc1ccc(C=O)c(-c2cccc(C(CC(=O)O)c3nccs3)c2)c1` (stereo not shown) [compound 37], the IC50 worked out at 3200 nM.

With `O=C(O)CC(c1cccc(-c2ccc(Cl)c(OCc3ccccc3)c2)c1)c1nccs1` (stereo not shown) [compound 38], the IC50 came out at 7870 nM.

`COc1ccc(-c2cccc(C(CC(=O)O)c3nccs3)c2)cn1` (stereo not shown) [compound 39]: the 50% inhibitory concentration (IC50) was 8350 nM.

For the molecule `Cc1cc(-c2cccc(C(CC(=O)O)c3nccs3)c2)n(C)n1` (stereo not shown) [compound 40], the IC50 was found to be 9540 nM.

For the molecule `O=C(O)CC(c1cccc(-c2cccnc2Cl)c1)c1nccs1` (stereo not shown) [compound 41], the half-inhibitory concentration (IC50) worked out at 11600 nM.

Regarding `Cn1nccc1-c1cccc(C(CC(=O)O)c2nccs2)c1` (stereo not shown) [compound 42], the IC50 came out at 15100 nM.

With `O=C(O)CC(c1cccc(-c2ccncc2Cl)c1)c1nccs1` (stereo not shown) [compound 43], the IC50 was 19400 nM.

Consider `O=C(O)CC(c1cccc(-c2cccnc2)c1)c1nccs1` (stereo not shown) [compound 44], for which the half-maximal inhibitory concentration (IC50) came to 21200 nM.

Take `N#Cc1ccc(-c2cccc(C(CC(=O)O)c3nccs3)c2)cn1` (stereo not shown) [compound 45]: the IC50 worked out at 22600 nM.

For `O=C(O)CC(c1cccc(-c2ccnc(F)c2)c1)c1nccs1` (stereo not shown) [compound 46], the half-maximal inhibitory concentration (IC50) is 23600 nM.

For `O=C(O)CC(c1cccc(-c2ccncc2F)c1)c1nccs1` (stereo not shown) [compound 47], the IC50 is 24800 nM.

Consider `Cc1cnc(C(CC(=O)O)c2cccc(-c3cc(Cl)ccc3F)c2)s1` (stereo not shown) [compound 50], for which the concentration for half-maximal inhibition (IC50) is 228 nM.

`COc1cccc(-c2cccc(C(CC(=O)O)c3ncc(C)s3)c2)c1F` (stereo not shown) [compound 51]: the IC50 amounted to 397 nM.

On to `COc1cc(F)c(-c2cccc(C(CC(=O)O)c3ncc(C)s3)c2)cc1F` (stereo not shown) [compound 52], for which the IC50 stood at 466 nM.

As for `Cc1cnc(C(CC(=O)O)c2cccc(-c3ccccc3F)c2)s1` (stereo not shown) [compound 53], the half-inhibitory concentration (IC50) was found to be 631 nM.

For the molecule `COc1ccc(-c2cccc(C(CC(=O)O)c3ncc(C)s3)c2)c(F)c1` (stereo not shown) [compound 54], the IC50 amounted to 989 nM.

Consider `CC(=O)c1ccccc1-c1cccc(C(CC(=O)O)c2ncc(C)s2)c1` (stereo not shown) [compound 55], for which the half-maximal inhibitory concentration (IC50) was 2300 nM.

With `Cc1cnc(C(CC(=O)O)c2cccc(-c3ccccc3C(N)=O)c2)s1` (stereo not shown) [compound 56], the IC50 was found to be 5380 nM.

Turning to `Cc1cnc(C(CC(=O)O)c2cccc(-c3ccncc3F)c2)s1` (stereo not shown) [compound 57], the IC50 was found to be 7060 nM.

Consider `Cc1cnc(C(CC(=O)O)c2cccc(-c3cccnc3)c2)s1` (stereo not shown) [compound 58], for which the IC50 came out at 7540 nM.

For the molecule `Cc1cnc(C(CC(=O)O)c2cccc(-c3cncc(C(=O)N4CCOCC4)c3)c2)s1` (stereo not shown) [compound 59], the IC50 worked out at 13600 nM.

For the molecule `Cc1cnc(C(CC(=O)O)c2cccc(-c3ccncc3)c2)s1` (stereo not shown) [compound 60], the IC50 is 13700 nM.

For the molecule `COc1ccc(-c2cccc(Cl)c2F)cc1C(CC(=O)O)c1ncc(C)s1` (stereo not shown) [compound 61], the concentration for half-maximal inhibition (IC50) was determined as 954 nM.

`COc1ccc(-c2ccc(C)cc2F)cc1C(CC(=O)O)c1ncc(C)s1` (stereo not shown) [compound 62]: the IC50 came out at 970 nM.

Turning to `COc1ccc(-c2cc(F)ccc2F)cc1C(CC(=O)O)c1ncc(C)s1` (stereo not shown) [compound 63], the IC50 came out at 975 nM.

For the molecule `COc1ccc(-c2cc(F)ccc2C)cc1C(CC(=O)O)c1ncc(C)s1` (stereo not shown) [compound 64], the IC50 turned out to be 1200 nM.

Regarding `COc1ccc(-c2cc(Cl)ccc2F)cc1C(CC(=O)O)c1ncc(C)s1` (stereo not shown) [compound 65], the IC50 is 1230 nM.

Consider `COc1ccc(-c2cc(F)ccc2Cl)cc1C(CC(=O)O)c1ncc(C)s1` (stereo not shown) [compound 66], for which the IC50 is 1250 nM.

Turning to `COc1ccc(-c2cccc(Cl)c2C)cc1C(CC(=O)O)c1ncc(C)s1` (stereo not shown) [compound 67], the IC50 stood at 1310 nM.

With `COc1ccc(-c2ccc(C)cc2)cc1C(CC(=O)O)c1ncc(C)s1` (stereo not shown) [compound 68], the 50% inhibitory concentration (IC50) is 1590 nM.

`COc1ccc(-c2cccc(F)c2F)cc1C(CC(=O)O)c1ncc(C)s1` (stereo not shown) [compound 69]: the half-inhibitory concentration (IC50) was 1770 nM.

With `COc1ccc(-c2cccc(F)c2)cc1C(CC(=O)O)c1ncc(C)s1` (stereo not shown) [compound 70], the IC50 amounted to 1960 nM.

For the molecule `COc1ccc(-c2cccc(C)c2C)cc1C(CC(=O)O)c1ncc(C)s1` (stereo not shown) [compound 71], the IC50 came out at 2300 nM.

For `COc1ccc(-c2ccccc2F)cc1C(CC(=O)O)c1ncc(C)s1` (stereo not shown) [compound 72], the IC50 was found to be 2340 nM.

Take `COc1ccc(-c2cccc(C)c2F)cc1C(CC(=O)O)c1ncc(C)s1` (stereo not shown) [compound 73]: the IC50 was found to be 2420 nM.

For `COc1ccc(-c2ccc(F)cc2F)cc1C(CC(=O)O)c1ncc(C)s1` (stereo not shown) [compound 74], the IC50 is 2650 nM.

For `COc1ccc(-c2ccc(C)cc2C)cc1C(CC(=O)O)c1ncc(C)s1` (stereo not shown) [compound 75], the IC50 came to 3090 nM.
